Assay results reported in patent US9133158B2, “Bicyclic dihydroisoquinoline-1-one derivatives” (Hoffmann-La Roche Inc., priority 2011, dated 2015).
pEC50: −log10 of the molar value.

Columns and labels:
human CYP11B1 = molecular target: T1, human CYP11B1 (Homo sapiens, UniProt P15538); assay: G-402 cellular enzyme assay, human CYP11B1 (cortisol release, HTRF); format: cell-based; conditions: G-402 cells, 1 μM Deoxycortisol
T1 construct: expressed in transfected cells
T1 sequence (P15538 25-503): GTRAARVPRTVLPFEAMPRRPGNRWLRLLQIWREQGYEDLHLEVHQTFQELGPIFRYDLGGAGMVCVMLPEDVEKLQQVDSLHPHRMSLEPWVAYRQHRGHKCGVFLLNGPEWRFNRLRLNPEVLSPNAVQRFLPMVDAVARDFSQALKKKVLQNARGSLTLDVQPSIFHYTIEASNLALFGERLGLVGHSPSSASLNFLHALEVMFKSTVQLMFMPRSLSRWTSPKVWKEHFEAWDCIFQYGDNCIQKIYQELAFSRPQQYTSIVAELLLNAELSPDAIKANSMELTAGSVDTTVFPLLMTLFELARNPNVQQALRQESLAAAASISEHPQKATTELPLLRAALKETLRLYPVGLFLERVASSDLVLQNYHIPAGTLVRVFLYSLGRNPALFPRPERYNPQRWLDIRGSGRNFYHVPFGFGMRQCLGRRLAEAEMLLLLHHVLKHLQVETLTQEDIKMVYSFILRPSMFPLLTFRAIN
Outline: (§1)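 G-402 cells stably expressing human CYP11B1 or CYP11B2 incubated 16 h in DMEM/F12 with 2.5% charcoal-treated FCS, compound, and 1 μM 11-deoxycortisol (B1) or 1 μM deoxycorticosterone (B2). Cortisol (B1) or aldosterone (B2) in supernatant measured by HTRF; EC50 from 4-parameter MMF fit.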

human CYP11B2 = molecular target: T2, human CYP11B2 (Homo sapiens, UniProt P19099); assay: G-402 cellular enzyme assay, human CYP11B2 (aldosterone release, HTRF); format: cell-based; conditions: G-402 cells, 1 μM Deoxycorticosterone
T2 construct: expressed in transfected cells
T2 sequence (P19099 25-503): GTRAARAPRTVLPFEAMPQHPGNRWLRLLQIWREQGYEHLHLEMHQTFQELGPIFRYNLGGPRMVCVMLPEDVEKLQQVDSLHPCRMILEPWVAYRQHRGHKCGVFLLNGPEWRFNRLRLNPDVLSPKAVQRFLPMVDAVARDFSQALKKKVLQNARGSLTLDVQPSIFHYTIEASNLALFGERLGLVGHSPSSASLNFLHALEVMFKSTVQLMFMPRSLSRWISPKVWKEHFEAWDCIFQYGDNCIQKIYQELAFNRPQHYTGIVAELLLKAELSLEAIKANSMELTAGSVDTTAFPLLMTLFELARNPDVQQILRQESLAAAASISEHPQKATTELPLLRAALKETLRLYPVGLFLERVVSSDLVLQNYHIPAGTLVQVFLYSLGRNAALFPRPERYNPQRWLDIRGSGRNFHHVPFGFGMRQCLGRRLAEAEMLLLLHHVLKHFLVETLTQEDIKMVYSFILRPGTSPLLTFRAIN
Outline: as §1

SMILES | pEC50 (human CYP11B1) | pEC50 (human CYP11B2)
Cc1ccn(Cc2cncc(N3CCc4cc(Cl)ccc4C3=O)c2)n1 [Example 190, 6-Chloro-2-[5-(3-methyl-pyrazol-1-ylmethyl)-pyridin-3-yl]-3,4-dihydro-2H-isoquinolin-1-one] | 5.14 | 6.48
CC(=O)N1CCN(c2cncc(N3C(=O)c4ccc(Cl)cc4C3(C)C)c2)CC1 [Example 455, 2-[5-(4-Acetyl-piperazin-1-yl)-pyridin-3-yl]-5-chloro-3,3-dimethyl-2,3-dihydro-isoindol-1-one] | 6.14 | 8.07
O=C1c2ccc(Cl)cc2CCN1c1cncc(COCC2CCCO2)c1 (stereo not drawn) [Example 201, 6-Chloro-2-[5-(tetrahydro-furan-2-ylmethoxymethyl)-pyridin-3-yl]-3,4-dihydro-2H-isoquinolin-1-one] | 6.53 | 7.52
O=C1c2ccc(Cl)cc2CCN1c1cncc(COC2CCCC2)c1 [Example 197, 6-Chloro-2-(5-cyclopentyloxymethyl-pyridin-3-yl)-3,4-dihydro-2H-isoquinolin-1-one] | 6.26 | 7.33
O=C(Nc1cncc(N2CCc3cc(Cl)ccc3C2=O)c1)NC1CCCCC1 [Example 250, 1-[5-(6-Chloro-1-oxo-3,4-dihydro-1H-isoquinolin-2-yl)-pyridin-3-yl]-3-cyclohexyl-urea] | 4.91 | 5.35
CCC1c2cc(Cl)ccc2C(=O)N1c1cncc(F)c1 (single isomer, unassigned) [Example 309, (R or S)-5-Chloro-3-ethyl-2-(5-fluoro-pyridin-3-yl)-2,3-dihydro-isoindol-1-one] | 5.61 | 7.80
O=C1c2ccc(Cl)cc2CCN1c1cncc(C(O)c2ccccc2)c1 (stereo not drawn) [Example 34, 6-Chloro-2-[5-(hydroxy-phenyl-methyl)-pyridin-3-yl]-3,4-dihydro-2H-isoquinolin-1-one] | 6.54 | 7.50
CC(=O)N[C@@H]1CCCc2c1cncc2N1C(=O)c2ccc(Cl)cc2[C@@H]1C (single isomer, unassigned) [Example 366, N-[(R or S)-4-((S or R)-5-Chloro-3-methyl-1-oxo-1,3-dihydro-isoindol-2-yl)-5,6,7,8-tetrahydro-isoquinolin-8-yl]-acetamide] | 7.09 | 8.36
O=C1c2ccc(Cl)cc2CCN1c1cncc(-c2ccc(F)c(F)c2)c1 [Example 232, 6-Chloro-2-[5-(3,4-difluoro-phenyl)-pyridin-3-yl]-3,4-dihydro-2H-isoquinolin-1-one] | 5.87 | 7.58
O=C1c2ccc(Cl)cc2C2(CC2)N1c1cccnc1 [Example 296, 6′-Chloro-2′-(pyridin-3-yl)spiro[cyclopropane-1,1′-isoindol]-3′(2′H)-one] | 5.35 | 6.88
CC(=O)N1CC(Oc2cncc(N3C(=O)c4ccc(Cl)cc4C3(C)C)c2)C1 [Example 450, 2-[5-(1-Acetyl-azetidin-3-yloxy)-pyridin-3-yl]-5-chloro-3,3-dimethyl-2,3-dihydro-isoindol-1-one] | 4.70 | 6.91
Cc1ccc(Cc2cncc(N3CCc4cc(Cl)ccc4C3=O)c2)cn1 [Example 206, 6-Chloro-2-[5-(6-methyl-pyridin-3-ylmethyl)-pyridin-3-yl]-3,4-dihydro-2H-isoquinolin-1-one] | 8.17 | 8.77
CC1(C)c2cc(Cl)ccc2C(=O)N1c1cncc(CN2CCCC2=O)c1 [Example 413, 5-Chloro-3,3-dimethyl-2-[5-(2-oxo-pyrrolidin-1-ylmethyl)-pyridin-3-yl]-2,3-dihydro-isoindol-1-one] | 6.09 | 7.68
O=C1c2ccc(Cl)cc2CCN1c1cncc(COCC2CC2)c1 [Example 198, 6-Chloro-2-(5-cyclopropylmethoxymethyl-pyridin-3-yl)-3,4-dihydro-2H-isoquinolin-1-one] | 6.00 | 5.61
O=C1c2ccc(Cl)cc2CCN1c1cncc(Cc2cc(Cl)ccc2Cl)c1 [Example 217, 6-Chloro-2-[5-(2,5-dichloro-benzyl)-pyridin-3-yl]-3,4-dihydro-2H-isoquinolin-1-one] | 6.10 | 7.04
Cc1cc(C)n(Cc2cncc(N3CCc4cc(Cl)ccc4C3=O)c2)n1 [Example 151, 6-Chloro-2-[5-(3,5-dimethyl-pyrazol-1-ylmethyl)-pyridin-3-yl]-3,4-dihydro-2H-isoquinolin-1-one] | 5.41 | 7.00
CC1Cc2cc(Cl)ccc2C(=O)N1c1cncc(F)c1 (stereo not drawn) [Example 89, 6-Chloro-2-(5-fluoro-pyridin-3-yl)-3-methyl-3,4-dihydro-2H-isoquinolin-1-one] | 4.77 | 6.57
O=C1c2ccc(Cl)cc2CCN1c1cncc(Cn2ccc3ccc(F)cc32)c1 [Example 184, 6-Chloro-2-[5-(6-fluoro-indol-1-ylmethyl)-pyridin-3-yl]-3,4-dihydro-2H-isoquinolin-1-one] | 6.57 | 7.75
Cc1nccn1Cc1cncc(N2CCc3cc(Cl)ccc3C2=O)c1 [Example 142, 6-Chloro-2-[5-(2-methyl-imidazol-1-ylmethyl)-pyridin-3-yl]-3,4-dihydro-2H-isoquinolin-1-one] | 6.01 | 7.10
Cn1nccc1-c1cncc(N2CCc3cc(Cl)ccc3C2=O)c1 [Example 238, 6-Chloro-2-[5-(2-methyl-2H-pyrazol-3-yl)-pyridin-3-yl]-3,4-dihydro-2H-isoquinolin-1-one] | 5.22 | 6.98
O=C1c2ccc(Cl)cc2CCN1c1cncc2cc[nH]c12 [Example 72, 6-Chloro-2-(1H-pyrrolo[3,2-c]pyridin-7-yl)-3,4-dihydro-2H-isoquinolin-1-one] | 4.78 | 6.23
CCS(=O)(=O)N1CCC(Oc2cncc(N3C(=O)c4ccc(Cl)cc4C3(C)C)c2)C1 (stereo not drawn) [Example 446, 5-Chloro-2-[5-(1-ethanesulfonyl-pyrrolidin-3-yloxy) -pyridin-3-yl]-3,3-dimethyl-2,3-dihydro-isoindol-1-one] | 6.58 | 6.73
CC(O)c1cncc(N2C(=O)c3ccc(Cl)cc3C2(C)C)c1 (stereo not drawn) [Example 132, 5-Chloro-2-[5-(1-hydroxy-ethyl)-pyridin-3-yl]-3,3-dimethyl-2,3-dihydro-isoindol-1-one] | 6.28 | 7.42
O=C1c2ccc(Cl)cc2CCN1c1cncc(CN2CC[C@H](O)C2)c1 [Example 148, 6-Chloro-2-[5-((S)-3-hydroxy-pyrrolidin-1-ylmethyl)-pyridin-3-yl]-3,4-dihydro-2H-isoquinolin-1-one] | 6.86 | 7.35
O=C1c2ccc(Cl)cc2CCN1c1cncc(Cn2ccc3c(F)cccc32)c1 [Example 186, 6-Chloro-2-[5-(4-fluoro-indol-1-ylmethyl)-pyridin-3-yl]-3,4-dihydro-2H-isoquinolin-1-one] | 6.68 | 7.63
CC1(C)c2cc(Cl)ccc2C(=O)N1c1cncc(CO)c1 [Example 133, 5-Chloro-2-(5-hydroxymethyl-pyridin-3-yl)-3,3-dimethyl-2,3-dihydro-isoindol-1-one] | 5.86 | 7.01
O=C1c2ccc(Cl)c(Cl)c2CCN1c1cccnc1 [Example 95, 5,6-Dichloro-2-pyridin-3-yl-3,4-dihydro-2H-isoquinolin-1-one] | 4.99 | 6.49
